Results as given in PMC10330721, “Chemo-enzymatic synthesis and biological activity evaluation of propenylbenzene derivatives” (Frontiers in Microbiology, 2023).
Converted amounts (≈) assume the structure as drawn. Where two headings read alike, the source gives them in different places.

How the values were obtained:
[1] = tested on: C. albicans 636/20; assay: Fungistatic activity assay, broth microdilution; format: cell-based; settings: Candida albicans, 636/20, 24 h
Protocol: (§1) Fungistatic activity was determined using Candida albicans ATCC 90028 from the American Type Culture Collection (ATCC, Manassas, VA, United States), and clinical isolates, C. albicans 636/20, C. albicans 595/20, and C. albicans 38 obtained from Wrocław Medical University, Wrocław, Poland.
(§2) All compounds were tested for biological activity against C. albicans ATTC 90028, C. albicans 636/20, C. albicans 595/20, and C. albicans 38 using the broth microdilution method. YPD medium (20 g glucose, 20 g Bacto Peptone, 10 g yeast extract, and 1 L of distilled water, pH 6.5) was used for the tests. The compound solutions were prepared in DMSO and diluted in YPD to obtain final concentrations in the range of 10–250 μg/mL. One hundred microlitres of each solution was pipetted into the wells of a 96-well microtiter plate. The inoculum was standardized to 0.5 McFarland standard and then diluted to obtain a final suspension with a cell density of 0.5–2.5 × 10^3 CFU/mL. The inoculum size was 100 μL. The positive control comprised DMSO added in the same concentration as the tested compounds in the inoculum, whereas the negative control consisted of DMSO diluted in the broth without the addition of inoculum. The microtiter plates were incubated in a Biosan PST-60 HL Plate Shaker-Thermostat (Riga, Latvia) at 35°C under shaking at 1,000 rpm for 24 h.

[2] = tested on: C. albicans strains; assay: Fungistatic activity assay, broth microdilution, values given over several strains; format: cell-based, Candida albicans; settings: Candida albicans
Protocol: as §1, §2

[3] = Haemolytic activity assay; format: cell-based; settings: human red blood cells (RBCs) from healthy donors, 37°C, read-out: Percentage of haemolysis
Protocol: This test is based on comparison of the cytotoxicity of all tested compounds in human red blood cells (RBCs) with that in a control group. RBCs for this method were obtained from a blood center from examined and healthy donors. The compounds were tested at 10, 20, 40, 60, 80, and 100 μM concentrations. The control sample contained only ethanol in the same volume as the test samples. […] The samples were incubated at 37°C for 1 h. Then, the absorbance at 540 nm was measured using a UV–Vis spectrophotometer (Specord 40, Analytik Jena, Jena, Germany). The haemolytic activity of the compounds was determined as the ratio of the absorbance of haemoglobin in the test samples to that in completely haemolyzed cells multiplied by 100%.

[4] = tested on: RBCs membrane; assay: Fluorescence spectroscopy of the RBCs membrane (DPH probe anisotropy); format: cell-based, human; settings: for Fluorescence anisotropy of the DPH probe: membranes of RBCs, 37 °C; for Change in DPH anisotropy / RBCs membrane fluidity (in words): RBCs, 20, 60 and 100 μM
Protocol: Using the DPH probe, the anisotropy values of cell membranes of RBCs modified with the test compounds were measured. RBCs for this analysis were prepared according to the method described in subsection 2.5.3. Then, the DPH probe was added to RBCs with a haematocrit of 0.2%. The final concentration of the probe in the sample was 1.3 μM. The mixture was incubated protected from light at 37°C for 30 min. Then, the compounds dissolved in ethanol were added. The compounds were tested at 20, 60, and 100 μM concentrations. Samples with compounds and control samples with alcohol of the appropriate concentration were incubated at 37°C for 1 h. Measurements in triplicate were made in quartz cuvettes using a CARY Eclipse fluorimeter (Varian, San Diego, CA, United States) at 37°C. The excitation wavelength for the DPH probe is λexc = 360 nm and the emission wavelength is λem = 426 nm.

[5] = tested on: MG63 cells; assay: Resazurin-based viability assay; format: cell-based, human; settings: for Effect on MG63 proliferation / viability (in words): 24 h, 1, 50 and 200 μg/mL
Protocol: (§3) HepG2 cells were cultured in Dulbecco’s modified Eagle’s Medium - low glucose (Merck) supplemented with 10% foetal bovine serum (FBS) (Merck). Caco-2 cells were cultured in Dulbecco’s modified Eagle’s medium - high glucose (Merck) supplemented with 10% FBS, 2% HEPES buffer (Thermo Fisher Scientific, Warszawa, Poland), 1% Penicillin–Streptomycin-Amphotericin B Solution (100×, Merck), 1% MEM solution (100×, Thermo Fisher Scientific), and 1% Gentamycin Solution (10 mg/mL, Merck). MG-63 cells were cultured in Minimum Essential Medium (Merck) supplemented with 10% FBS. All cells were cultured in an atmosphere of 5% CO2 at 37°C.
The tested compounds were dissolved in ethanol at 10 mg/mL. The concentrations were then adjusted to 1, 50, and 200 μg/mL in culture medium. Four controls were prepared: no ethanol added, and 0.01, 0.5, and 2% EtOH. The cells were treated with the compounds for 24 h. […] The culture medium was replaced with medium containing 10% resazurin dye. The cells were incubated at 37°C in an atmosphere of 5% CO2 for 2 h. Absorbance levels were measured spectrophotometrically (Epoch) at a wavelengths of 600 nm for resazurin and 690 nm as a reference.

[6] = tested on: Caco-2 cells; assay: Resazurin-based viability assay; format: cell-based, human; settings: for Effect on Caco-2 proliferation / viability (in words): 24 h, 1, 50 and 200 μg/mL
Protocol: as §3, with “The human HepG2 and Caco-2 cell lines were obtained from the American Type Culture Collection (HB-8065™ and HTB-37™) and the MG-63 cell line was obtained from the European Collection of Authenticated Cell Cultures (Merck, Poznań, Poland). HepG2” for “HepG2”
(§4) HepG2, Caco-2, and […] were seeded in 96-well plates at 20,000 cells per well, and MG-63 cells at 10,000 cells per well, as described previously ([Marycz et al., 2012]; [Kornicka et al., 2017]). The tested compounds were dissolved in ethanol at 10 mg/mL. The concentrations were then adjusted to 1, 50, and 200 μg/mL in culture medium. Four controls were prepared: no ethanol added, and 0.01, 0.5, and 2% EtOH. The cells were treated with the compounds for 24 h. Then, cell viability was evaluated using the resazurin-based assay kit (TOX8), as described previously ([Grzesiak et al., 2011]; [Marycz et al., 2018]). The culture medium was replaced with medium containing 10% resazurin dye. The cells were incubated at 37°C in an atmosphere of 5% CO2 for 2 h. Absorbance levels were measured spectrophotometrically (Epoch) at a wavelengths of 600 nm for resazurin and 690 nm as a reference.

[7] = tested on: HepG2 cells; assay: Resazurin-based viability assay; format: cell-based, human
Protocol: as §3, with “The human HepG2 and Caco-2 cell lines were obtained from the American Type Culture Collection (HB-8065™ and HTB-37™) and the MG-63 cell line was obtained from the European Collection of Authenticated Cell Cultures (Merck, Poznań, Poland). HepG2” for “HepG2”
as §4

[8] = tested on: C. albicans 595/20; assay: Fungistatic activity assay, broth microdilution; format: cell-based; settings: Candida albicans
Protocol: as §1, §2

[9] = tested on: C. albicans ATTC18804; parameters: method as in Kubo et al., 1993; settings: C. albicans ATTC18804 ref Kubo et al., 1993; cited from earlier work

| Compound | hemolysis at 1 h, 10 µM [3] [%] | hemolysis at 1 h, 20 µM [3] [%] | hemolysis at 1 h, 40 µM [3] [%] | hemolysis at 1 h, 60 µM [3] [%] | hemolysis at 1 h, 80 µM [3] [%] | hemolysis at 1 h, 100 µM [3] [%] | Fluorescence anisotropy of the DPH probe ([4]; 20 µM) | Fluorescence anisotropy of the DPH probe ([4]; 60 µM) | Fluorescence anisotropy of the DPH probe ([4]; 100 µM) | Effect on MG63 proliferation / viability (in words) [5] | Change in DPH anisotropy / RBCs membrane fluidity (in words) [4] | Effect on Caco-2 proliferation / viability (in words) [6] | also measured |
| --- | --- | --- | --- | --- | --- | --- | --- | --- | --- | --- | --- | --- | --- |
| CC(O)C(=O)c1ccc2c(c1)OCO2 (stereo not shown) [1c, 1-(1,3-benzodioxol-5-yl)-2-hydroxypropan-1-one] | 1.46 ± 0.08 | 1.17 ± 0.02 | 1.81 ± 0.302 | 1.85 ± 0.027 | 1.41 ± 0.295 | 1.51 ± 0.576 | 0.260 ± 0.011 | 0.267 ± 0.019 | 0.277 ± 0.078 | suppressed the proliferation | – | – | MIC50 [1]: > 250 µg/mL; MIC50 ([2]; read-out: MIC50 (over three strains)): 178 to 200 µg/mL (≈ 917 to 1030 µM) |
| COc1cc(C(O)C(C)O)ccc1O (stereo not shown) [5b, 1-(4-hydroxy-3-methoxyphenyl)propane-1,2-diol] | 1.27 ± 0.094 | 1.55 ± 0.101 | 1.52 ± 0.181 | 1.62 ± 0.174 | 2.58 ± 0.288 | 1.98 ± 0.308 | 0.268 ± 0.025 | 0.277 ± 0.003 | 0.272 ± 0.058 | suppressed the proliferation | – | – | Effect on Caco-2 proliferative activity (in words) ([6]; 24 h, 1 μg/mL): induced the proliferative activity; Effect on HepG2 proliferative activity (in words) ([7]; 24 h, 1 μg/mL): induced the proliferative activity; Effect on MG63 proliferative activity (in words) ([5]; 24 h, 1 μg/mL): induced the proliferative activity; Effect on MG63 proliferative activity / viability (in words) ([5]; 24 h, 50 μg/mL): significantly increased cell viability |
| COc1ccc(C(=O)C(C)O)cc1OC (stereo not shown) [4c, 1-(3,4-dimethoxyphenyl)-2-hydroxypropan-1-one] | 1.483 ± 0.007 | 1.93 ± 0.228 | 2.1 ± 0.395 | 1.77 ± 0.342 | 2.02 ± 0.047 | 2.445 ± 0.013 | 0.257 ± 0.014 | 0.243 ± 0.019 | 0.263 ± 0.008 | promoted MGC63 proliferation | a decrease in anisotropy | – | – |
| COc1ccc(C(O)C(C)O)cc1 (stereo not shown) [3b, 1-(4-methoxyphenyl)propane-1,2-diol] | 2.45 ± 0.509 | 2.98 ± 0.153 | 1.9 ± 0.209 | 2.29 ± 0.635 | 2.4 ± 0.209 | 2.6 ± 0.265 | 0.272 ± 0.019 | 0.249 ± 0.083 | 0.262 ± 0.056 | suppressed the proliferation | an increase in anisotropy at lower concentrations and a decrease at higher concentrations | strongest inhibition | MIC50 ([8]; C. albicans 595/20, 24 h, 35°C, tested 10–250 μg/mL, read-out: MIC50): 47 µg/mL (≈ 258 µM); MIC50 ([2]; C. albicans 595/20, 636/20 and 38, read-out: MIC50 (over three strains)): 47 to 76 µg/mL (≈ 258 to 417 µM); Effect on HepG2 proliferation / viability (in words) ([7]; 24 h, 1, 50 and 200 μg/mL): significantly increased the proliferative potential |
| CC(O)C(O)c1ccc2c(c1)OCO2 (stereo not shown) [1b, 1-(1,3-benzodioxol-5-yl)propane-1,2-diol] | 2.28 ± 0.251 | 1.86 ± 0.293 | 1.98 ± 0.272 | 1.88 ± 0.251 | 2.39 ± 0.349 | 2.58 ± 0.321 | 0.247 ± 0.018 | 0.274 ± 0.036 | 0.252 ± 0.012 | – | – | strongest inhibition | MIC50 ([8]; 595/20, 24 h): 107 µg/mL (≈ 545 µM); MIC50 [1]: 177 µg/mL (≈ 902 µM) |
| COc1ccc(C(O)C(C)O)cc1OC (stereo not shown) [4b, 1-(3,4-dimethoxyphenyl)propane-1,2-diol] | 1.64 ± 0.127 | 1.52 ± 0.375 | 1.42 ± 0.074 | 1.2 ± 0.395 | 1.19 ± 0.04 | 2.06 ± 0.536 | 0.289 ± 0.004 | 0.228 ± 0.095 | 0.290 ± 0.003 | – | increase in anisotropy | strongest inhibition | MIC50 ([2]; C. albicans 636/20, 595/20, 38 and ATTC90028, read-out: MIC50 (over all tested strains)): 37 to 63 µg/mL (≈ 174 to 297 µM) |
| CC=Cc1ccc(OC)c(OC)c1 [4a, 1,2-dimethoxy-4-prop-1-en-1-yl benzene] | 1.76 ± 0.152 | 1.48 ± 0.173 | 1.67 ± 0.195 | 1.58 ± 0.18 | 2.48 ± 0.152 | 1.79 ± 0.159 | 0.264 ± 0.004 | 0.261 ± 0.008 | 0.269 ± 0.007 | promoted MGC63 proliferation | – | – | MIC50 ([2]; read-out: MIC50 (over all tested strains)): 39 to 67 µg/mL (≈ 219 to 376 µM); MIC [9]: 400 µg/mL (≈ 2240 µM) |
